Assay [1] addresses FGF receptor (FGFr) tyrosine kinase (Homo sapiens, UniProt P11362). Kind of assay: Assay for Inhibition of FGFr. It counts as biochemical. As to conditions: 50 μM ATP, Poly (4:1) glutamate-tyrosine substrate, 25° C. The protocol: (§1) The assays were carried out as described below.
Assay for Inhibition of FGFr
For FGF receptor (FGFr) tyrosine kinase assays 96-well plates (100 μL/incubation/well), and conditions are optimized to measure the incorporation of ^32P from [γ^32P]ATP into a glutamate-tyrosine co-polymer substrate. Briefly, to each well is added 82.5 μL incubation buffer B (25 mM Hepes (pH 7.0), 150 mM NaCl, 0.1% Triton X-100, 0.2 mM PMSF, 0.2 mM Na3VO4, 10 mM MnCl2) and 750 μg/mL Poly (4:1) glutamate-tyrosine followed by 2.5 μL of the test compound in buffer B and 5 μL of a 7.5 μg/μL FGFr solution to initiate the reaction. Following a 10-minute incubation at 25° C., […] [γ^32P]ATP (0.4 μCi plus 50 μM ATP) is added to each well, and samples are incubated for an additional 10 minutes at 25° C. The reaction is terminated by the addition of 100 μL 30% trichloroacetic acid (TCA) containing 20 mM sodium pyrophosphate and precipitation of material onto glass fiber mats (Wallac). […] Nonspecific activity is defined as radioactivity retained on the filters following incubation of samples with buffer alone (no enzyme). Specific enzymatic activity (enzyme plus buffer) is defined as total activity minus nonspecific activity.

The next assay deals with Cdk4/Cyclin D (Homo sapiens, UniProt P11802). Kind of assay: Assay for Inhibition of Cdk4/Cyclin D. The class given is biochemical. As to conditions: 25 μM ATP, retinoblastoma protein substrate, 25° C., 15 minutes. How it is done:
as §1
Assay for Inhibition of Cdk4/Cyclin D
The Cdk4 enzyme assay for IC50 determination and kinetic evaluation is performed as follows. 96-well filter plates (Millipore MADVN6550) are used. […] Buffer A containing excess EDTA was used to determine the level of background ^32P in the absence of enzyme activity. All components except the ATP are added to the wells, and the plate is placed on a plate mixer for 2 minutes. The reaction is started by adding [^32P]ATP, and the plate is incubated at 25° C. for 15 minutes. The reaction is terminated by addition of 0.1 mL 20% trichloroacetic acid (TCA). The plate is kept at 4° C. for at least 1 hour to allow the substrate to precipitate. The wells are then washed five times with 0.2 mL 10% TCA, and ^32P incorporation is determined with a beta plate counter (Wallac Inc., Gaithersburg, Md.).

Results on 13 compounds are retold here after patent USRE47739E1, “2-(pyridin-2-ylamino)-pyrido[2,3-D]pyrimidin-7-ones” (Warner-Lambert Company LLC, priority 2002, dated 2019).

Molecules are shown by their SMILES. Where a name gives a salt, the structure may show the parent alone. Where only a bound is given, the exact number is not on record here.

Sequence of FGF receptor (FGFr) tyrosine kinase (P11362 22-822): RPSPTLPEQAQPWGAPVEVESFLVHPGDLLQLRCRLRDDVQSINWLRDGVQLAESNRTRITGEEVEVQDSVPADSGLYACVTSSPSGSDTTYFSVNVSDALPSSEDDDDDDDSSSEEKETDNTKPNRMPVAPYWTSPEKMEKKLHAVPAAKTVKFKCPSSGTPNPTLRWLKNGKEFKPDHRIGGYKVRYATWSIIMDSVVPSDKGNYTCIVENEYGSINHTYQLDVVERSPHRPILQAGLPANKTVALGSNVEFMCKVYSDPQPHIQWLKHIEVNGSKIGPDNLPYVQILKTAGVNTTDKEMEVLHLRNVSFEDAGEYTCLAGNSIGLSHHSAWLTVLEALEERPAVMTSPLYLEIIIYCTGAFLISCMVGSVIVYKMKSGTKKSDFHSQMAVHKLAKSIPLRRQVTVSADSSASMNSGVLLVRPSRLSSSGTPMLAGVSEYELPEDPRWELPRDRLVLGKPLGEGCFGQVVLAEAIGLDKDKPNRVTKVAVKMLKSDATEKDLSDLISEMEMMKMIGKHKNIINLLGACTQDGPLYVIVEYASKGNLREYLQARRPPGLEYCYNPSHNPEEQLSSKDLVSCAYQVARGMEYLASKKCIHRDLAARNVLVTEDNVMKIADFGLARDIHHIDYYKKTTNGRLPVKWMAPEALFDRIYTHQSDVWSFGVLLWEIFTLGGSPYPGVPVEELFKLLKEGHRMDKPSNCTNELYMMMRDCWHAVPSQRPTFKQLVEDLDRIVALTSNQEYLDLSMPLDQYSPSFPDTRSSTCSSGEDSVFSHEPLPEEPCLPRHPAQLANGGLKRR
Sequence of Cdk4/Cyclin D (P11802 whole entry, species assumed): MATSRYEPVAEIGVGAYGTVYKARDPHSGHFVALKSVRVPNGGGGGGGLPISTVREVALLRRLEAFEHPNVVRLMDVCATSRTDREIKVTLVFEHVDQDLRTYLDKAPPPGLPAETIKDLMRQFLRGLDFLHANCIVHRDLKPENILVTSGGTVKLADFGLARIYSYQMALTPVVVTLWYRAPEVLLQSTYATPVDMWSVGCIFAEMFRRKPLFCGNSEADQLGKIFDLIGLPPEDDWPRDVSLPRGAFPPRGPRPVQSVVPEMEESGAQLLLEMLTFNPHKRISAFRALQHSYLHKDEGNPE
Sequence of Cdk4/Cyclin D (P24385 whole entry partner, species assumed): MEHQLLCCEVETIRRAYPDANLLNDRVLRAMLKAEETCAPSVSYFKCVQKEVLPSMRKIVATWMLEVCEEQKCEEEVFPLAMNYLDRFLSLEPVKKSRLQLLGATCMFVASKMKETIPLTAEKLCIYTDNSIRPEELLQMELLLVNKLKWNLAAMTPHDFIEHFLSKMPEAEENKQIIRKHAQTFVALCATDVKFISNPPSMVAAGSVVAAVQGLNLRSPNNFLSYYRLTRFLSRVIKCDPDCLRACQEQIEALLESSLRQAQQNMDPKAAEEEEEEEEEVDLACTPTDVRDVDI

`CCc1cc2cnc(Nc3ccc(N4CCNCC4)cn3)nc2n(C2CCCC2)c1=O` [Example 5, 8-Cyclopentyl-6-ethyl-2-(5-piperazin-1-yl-pyridin-2-ylamino)-8H-pyrido[2,3-d]pyrimidin-7-one hydrochloride]: the figures for the IC50 (in assay [1]; against Cdk4/Cyclin D) were 990 nM and 19 nM, respectively.
As for `CCOC(=O)c1cc2cnc(Nc3ccc(N4CCNCC4)cn3)nc2n(C2CCCC2)c1=O` [Example 7, 8-Cyclopentyl-7-oxo-2-(5-piperazin-1-yl-pyridin-2-ylamino)-7,8-dihydro-pyrido[2,3-d]pyrimidine-6-carboxylic acid ethyl ester hydrochloride], on Cdk4/Cyclin D, the IC50 amounted to 595 nM.
On to `Nc1cc2cnc(Nc3ccc(N4CCNCC4)cn3)nc2n(C2CCCC2)c1=O` [Example 11, 6-Amino-8-cyclopentyl-2-(5-piperazin-1-yl-pyridin-2-ylamino)-8H-pyrido[2,3-d]pyrimidin-7-one hydrochloride], for which the IC50 is 2120 nM in assay [1] and 12 nM at Cdk4/Cyclin D.
The compound `CN1CCC[C@H]1c1ccc(Nc2ncc3cc(Br)c(=O)n(C4CCCC4)c3n2)nc1` [Example 12, 6-Bromo-8-cyclopentyl-2-[5-((S)-1-methyl-1-pyrrolidin-2-yl)-pyridin-2-ylamino]-8H-pyrido[2,3-d]pyrimidin-7-one hydrochloride] displayed an IC50 against Cdk4/Cyclin D of 175 nM.
Turning to `O=c1c(Br)cc2cnc(Nc3ccccn3)nc2n1C1CCCCC1` [Example 13, 6-Bromo-8-cyclohexyl-2-(pyridin-2-yl-amino)-8H-pyrido[2,3-d]pyrimidin-7-one], the IC50 on Cdk4/Cyclin D is greater than 5000 nM.
Still for that read-out and setting: with `NC(=O)c1ccc(Nc2ncc3cc(Br)c(=O)n(C4CCCC4)c3n2)nc1` [Example 14] the figure was 260 nM.
With `Cc1c(Br)c(=O)n(C2CCCC2)c2nc(Nc3ccc(N4CCNCC4)cn3)ncc12` [Example 15, 6-Bromo-8-cyclopentyl-5-methyl-2-(5-piperizin-1-yl-pyridin-2-ylamino)-8H-pyrido[2,3-d]pyrimidin-7-one], the figures for the half-inhibitory concentration (IC50) (in assay [1]; against Cdk4/Cyclin D) were greater than 5000 nM and 160 nM, respectively.
With `O=c1c(F)cc2cnc(Nc3ccc(N4CCNCC4)cn3)nc2n1C1CCCC1` [Example 18, 8-Cyclopentyl-6-fluoro-2-(5-piperazin-1-yl-pyridin-2-ylamino)-8H-pyrido[2,3-d]pyrimidin-7-one hydrochloride], on Cdk4/Cyclin D, the IC50 came out at 51 nM.
With `CC(C)COc1cc2cnc(Nc3ccc(N4CCNCC4)cn3)nc2n(C2CCCC2)c1=O` [Example 22, 8-Cyclopentyl-6-isobutoxy-2-(5-piperazin-1-yl-pyridin-2-ylamino)-8H-pyrido[2.3-d]pyrimidin-7-one hydrochloride], the IC50 in assay [1] is greater than 5000 nM; on Cdk4/Cyclin D, 1700 nM.
Compound `CC(=O)c1c(C)c2cnc(Nc3ccc(N4CCN(C)CC4)cn3)nc2n(C2CCCC2)c1=O` [Example 72, 6-Acetyl-8-cyclopentyl-5-methyl-2-[5-(4-methyl-piperazin-1-yl)-pyridin-2-ylamino]-8H-pyrido[2,3-d]pyrimidin-7-one] came in with an IC50 against Cdk4/Cyclin D of 5 nM.
In turn, `CC(=O)c1c(C)c2cnc(Nc3ccc(N4CCC(O)CC4)cn3)nc2n(C2CCCC2)c1=O` [Example 77, 6-Acetyl-8-cyclopentyl-2-(4-hydroxy-3,4,5,6-tetrahydro-2H-[1,3′]bipyridinyl-6′-ylamino)-5-methyl-8H-pyrido[2,3-d]pyrimidin-7-one] displayed an IC50 on Cdk4/Cyclin D of 19 nM.
Same read-out and setting: with `Cc1c(Br)c(=O)n(C2CCCC2)c2nc(Nc3ccc(N4CCCCC4)cn3)ncc12` [Example 103, 6-Bromo-8-cyclopentyl-5-methyl-2-(3,4,5,6-tetrahydro-2H-[1,3]bipyridinyl-6′-ylamino)-8H-pyrido[2,3-d]pyrimidin-7-one] the figure was greater than 5000 nM.
On Cdk4/Cyclin D, `CC(=O)c1c(C)c2cnc(Nc3ccc(N4CCCCC4)cn3)nc2n(C2CCCC2)c1=O` [Example 105, 6-Acetyl-8-cyclopentyl-5-methyl-2-(3,4,5,6-tetrahydro-2H-[1,3′]bipyridinyl-6′-ylamino)-8H-pyrido[2,3-d]pyrimidin-7-one] gave an IC50 of 5 nM. This lies in the single-digit nanomolar range.
